Converted amounts (≈) assume the structure as drawn. “And” between values parts separate entries of the source, which are not always exact repeats. Equal values may be shown once. “Also recorded” adds a separate entry of the source.
Assays:
[1] = target: T1, ΔF508-CFTR (Homo sapiens, UniProt P13569, DEL508-508); assay: Short-circuit current in FRT cells expressing ΔF508-CFTR corrected with VX-809; assay type: cell-based; details: after overnight incubation with a corrector
T1 construct: expressed in transfected cells; host or cells: Fischer rat thyroid (FRT) cells
T1 sequence (P13569 with tags, fused parts or gaps DEL508-508): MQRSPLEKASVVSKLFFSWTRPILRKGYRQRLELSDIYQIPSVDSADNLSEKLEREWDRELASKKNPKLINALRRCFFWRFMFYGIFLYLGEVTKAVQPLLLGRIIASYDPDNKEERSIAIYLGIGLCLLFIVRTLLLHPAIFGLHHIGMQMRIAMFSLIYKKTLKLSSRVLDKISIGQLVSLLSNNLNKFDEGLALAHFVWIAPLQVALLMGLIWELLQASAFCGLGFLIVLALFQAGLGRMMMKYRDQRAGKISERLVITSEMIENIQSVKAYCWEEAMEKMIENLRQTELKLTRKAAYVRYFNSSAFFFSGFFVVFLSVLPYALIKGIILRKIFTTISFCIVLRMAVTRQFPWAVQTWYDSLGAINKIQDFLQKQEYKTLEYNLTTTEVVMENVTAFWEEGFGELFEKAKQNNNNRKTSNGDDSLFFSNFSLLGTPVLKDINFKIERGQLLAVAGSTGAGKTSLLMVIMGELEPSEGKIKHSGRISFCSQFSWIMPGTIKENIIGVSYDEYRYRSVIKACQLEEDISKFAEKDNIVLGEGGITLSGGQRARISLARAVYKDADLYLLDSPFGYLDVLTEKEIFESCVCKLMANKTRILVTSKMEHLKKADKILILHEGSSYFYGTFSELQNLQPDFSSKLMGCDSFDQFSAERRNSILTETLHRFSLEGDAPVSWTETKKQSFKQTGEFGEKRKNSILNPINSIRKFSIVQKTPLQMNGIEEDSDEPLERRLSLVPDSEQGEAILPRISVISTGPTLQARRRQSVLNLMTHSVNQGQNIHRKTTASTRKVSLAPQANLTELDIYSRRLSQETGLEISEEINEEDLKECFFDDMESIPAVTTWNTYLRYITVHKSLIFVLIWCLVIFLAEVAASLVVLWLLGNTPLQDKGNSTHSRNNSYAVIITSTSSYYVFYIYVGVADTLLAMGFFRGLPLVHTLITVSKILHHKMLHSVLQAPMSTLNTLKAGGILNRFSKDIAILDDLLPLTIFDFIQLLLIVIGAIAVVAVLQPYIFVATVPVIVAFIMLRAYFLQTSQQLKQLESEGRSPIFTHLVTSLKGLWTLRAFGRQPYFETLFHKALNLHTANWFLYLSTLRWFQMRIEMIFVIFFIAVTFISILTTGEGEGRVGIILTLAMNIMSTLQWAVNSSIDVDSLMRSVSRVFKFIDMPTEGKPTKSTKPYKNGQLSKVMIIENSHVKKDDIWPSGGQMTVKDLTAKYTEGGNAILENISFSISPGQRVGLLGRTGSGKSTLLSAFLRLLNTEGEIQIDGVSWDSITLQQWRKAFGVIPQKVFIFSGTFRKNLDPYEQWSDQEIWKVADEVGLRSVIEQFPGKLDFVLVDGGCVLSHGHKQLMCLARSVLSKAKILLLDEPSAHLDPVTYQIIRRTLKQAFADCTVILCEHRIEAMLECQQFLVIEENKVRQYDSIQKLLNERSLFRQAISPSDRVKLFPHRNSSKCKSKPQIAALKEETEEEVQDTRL
Procedure: FIGS. 9A-9E. Characterization of CFTR activation by CFTRact-J027. Short-circuit current measured in FRT cells expressing human wild-type CFTR (FIG. 9A) and ΔF508-CFTR (FIG. 9C) showing responses to indicated concentrations of forskolin (fsk), CFTRact-J027, and VX-770. The ΔF508-CFTR-expressing FRT cells were corrected with 3 μM VX-809 at 37° C. for 24 h before measurement. CFTRinh-172 (Inh-172, 10 μM) was added where indicated. FIG. 9B. CFTRact-J027 concentration-dependent activation of wild-type CFTR Cl^− current (S.E.; n=3 cultures). FIG. 9D. Short-circuit current in mouse colon showing responses to indicated concentrations of forskolin (fsk), CFTRact-J027, and CFTRinh-172. FIG. 9E. Assay of cAMP concentration in FRT cells measured following 10-min incubation with indicated concentrations of forskolin and 5 μM CFTRact-J027. Positive controls included forskolin (100 nM and 20 μM), and forskolin plus 3-isobutyl-1-methylxanthine (IBMX, 100 μM) (mean±SE, n=4-8).

[2] = tested on: FRT cells; assay: Alamar Blue cytotoxicity assay in FRT cells; assay type: cell-based, rat
[3] = tested on: tear fluid secretion; assay type: in vivo, mouse; details: wild-type mice; B074 100 μM, J027 and K089 50 μM, VX-770 10 μM, cholera toxin 0.1 μg/mL, forskolin 20 μM, IBMX 250 μM
[4] = target: human wildtype CFTR (Homo sapiens, UniProt P13569); assay: Short-circuit current (Isc) in FRT cells expressing human wild-type CFTR
human wildtype CFTR, sequence (P13569 whole entry): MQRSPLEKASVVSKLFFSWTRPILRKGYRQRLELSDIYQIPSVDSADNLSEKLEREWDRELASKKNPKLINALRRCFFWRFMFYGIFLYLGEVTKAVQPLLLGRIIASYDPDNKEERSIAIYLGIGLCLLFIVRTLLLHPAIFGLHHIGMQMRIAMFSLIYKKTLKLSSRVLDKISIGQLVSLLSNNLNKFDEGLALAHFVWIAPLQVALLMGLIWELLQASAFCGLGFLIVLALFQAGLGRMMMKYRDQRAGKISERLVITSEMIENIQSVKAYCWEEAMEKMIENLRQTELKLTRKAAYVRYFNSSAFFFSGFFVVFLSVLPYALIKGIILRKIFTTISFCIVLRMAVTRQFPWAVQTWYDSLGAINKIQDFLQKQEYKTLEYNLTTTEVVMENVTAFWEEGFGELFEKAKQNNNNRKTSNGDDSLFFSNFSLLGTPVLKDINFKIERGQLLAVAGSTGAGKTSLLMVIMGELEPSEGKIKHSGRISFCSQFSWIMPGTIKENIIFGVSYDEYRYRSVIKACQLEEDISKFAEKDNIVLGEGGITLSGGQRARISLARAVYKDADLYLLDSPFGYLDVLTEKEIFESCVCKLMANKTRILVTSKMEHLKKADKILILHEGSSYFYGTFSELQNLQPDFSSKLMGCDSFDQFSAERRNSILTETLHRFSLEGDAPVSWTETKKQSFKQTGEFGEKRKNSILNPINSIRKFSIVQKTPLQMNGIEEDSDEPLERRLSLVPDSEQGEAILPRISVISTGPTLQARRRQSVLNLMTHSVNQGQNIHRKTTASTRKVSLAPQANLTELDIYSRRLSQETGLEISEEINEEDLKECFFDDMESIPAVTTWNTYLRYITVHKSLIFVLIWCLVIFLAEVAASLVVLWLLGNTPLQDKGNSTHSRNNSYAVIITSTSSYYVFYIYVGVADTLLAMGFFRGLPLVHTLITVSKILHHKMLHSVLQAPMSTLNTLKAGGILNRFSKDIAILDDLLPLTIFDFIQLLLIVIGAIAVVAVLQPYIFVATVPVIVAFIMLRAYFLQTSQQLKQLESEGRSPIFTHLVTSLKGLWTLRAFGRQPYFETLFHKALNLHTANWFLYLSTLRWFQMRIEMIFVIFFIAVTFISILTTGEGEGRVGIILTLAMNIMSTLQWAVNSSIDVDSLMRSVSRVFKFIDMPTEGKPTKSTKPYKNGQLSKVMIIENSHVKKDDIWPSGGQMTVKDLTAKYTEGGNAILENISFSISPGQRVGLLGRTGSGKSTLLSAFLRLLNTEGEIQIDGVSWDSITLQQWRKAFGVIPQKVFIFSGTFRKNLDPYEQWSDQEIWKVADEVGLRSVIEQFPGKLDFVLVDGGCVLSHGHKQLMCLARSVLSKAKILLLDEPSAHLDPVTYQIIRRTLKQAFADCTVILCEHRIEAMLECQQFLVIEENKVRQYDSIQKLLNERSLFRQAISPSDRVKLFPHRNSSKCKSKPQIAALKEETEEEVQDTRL

[5] = 7-day oral administration toxicity study in mice; assay type: in vivo, mouse
From the text: Chronic administration and toxicity studies.

[6] = tested on: intestinal fluid secretion; assay: Closed mid-jejunal loop model of intestinal fluid secretion; assay type: in vivo, mouse; details: 90 min
Procedure: Mice (wildtype or CF) were given access to 5% dextrose water but not solid food for 24 h before experiments. Mice were anesthetized with isoflurane and body temperature was maintained during surgery at 36-38° C. using a heating pad. A small abdominal incision was made to expose the small intestine, and closed mid-jejunal loops (length 2-3 cm) were isolated by sutures. Loops were injected with 100 μL vehicle alone or 100 μg CFTRact-J027 in vehicle. The abdominal incision was closed with sutures, and mice were allowed to recover from anesthesia. Intestinal loops were removed at 90 min and loop length and weight were measured to quantify fluid secretion. Intestinal absorption was measured in CF mice (to prevent secretion) as described above, except that the loops were removed at 0 or 30 min. Absorption was calculated as 1−(loop weight at 0 min−loop weight at 30 min)/loop weight at 0 min.
In vivo intestinal secretion and absorption. Mice (wildtype or CF) were given access to 5% dextrose water but not solid food for 24 h before experiments. […] Intestinal loops were removed at 90 min and loop length and weight were measured to quantify fluid secretion. Intestinal absorption was measured in CF mice (to prevent secretion) as described above, except that the loops were removed at 0 or 30 min. Absorption was calculated as 1−(loop weight at 0 min−loop weight at 30 min)/loop weight at 0 min. […]

[7] = Solubility; assay type: physicochemical; details: read-out: solubility limit
[8] = 10 mg/kg orally once per day, 7 days, mean

Question: What does the source list for `Nc1ccc([N+](=O)[O-])cc1-c1nc2ccccc2n(Cc2ccccc2)c1=O` [CFTRact-J027, 3-(2-amino-5-nitrophenyl)-1-benzylquinoxalin-2(1H)-one]?
Answer: potentiation of ΔF508-CFTR [1]: substantially less potent than ivacaftor; also recorded: only a weak potentiator; cytotoxicity (Alamar Blue) ([2]; 20 μM): did not show cytotoxicity; in vitro cytotoxicity ([2]; 25 μM): did not show significant in vitro cytotoxicity; non-cytotoxic concentration relative to EC50 for CFTR activation ([2]; 25 μM): > 100 fold; in vitro cytotoxicity ([2]; up to 100 μM, 1 or 24 h): no appreciable in vitro cytotoxicity; tear fluid secretion after single topical dose [3]: increased tear fluid secretion by approximately two-fold for at least four hours; CFTR activation at 3 μM ([4]; 3 μM): nearly full activation; EC50 ([4]; EC50 for CFTR activation, FRT cells, wild-type CFTR, short-circuit current): ~0.2 µM and 0.2 µM; extent of CFTR activation (Isc) ([4]; forskolin produced little or no further increase in current): fully activated CFTR; toxicity after chronic administration ([5]; 10 mg/kg oral): without apparent toxicity; ALP [5, 8]: 53 U/L; ALT [5, 8]: 44 U/L; AST [5, 8]: 105 U/L; Albumin [5, 8]: 2.9 g/dL; BUN [5, 8]: 18.4 mg/dL; Bicarbonate [5, 8]: 16 mmol/L; CK [5, 8]: 312 U/L; Calcium [5, 8]: 8.5 mg/dL; Chloride [5, 8]: 115 mmol/L; Cholesterol [5, 8]: 121 mg/dL; Creatinine [5, 8]: 0.2 mg/dL; Globulin [5, 8]: 2.2 g/dL; Glucose [5, 8]: 164 mg/dL; Hemoglobin [5, 8]: 12.8 g/dL; Leukocytes [5, 8]: 1.9 ± 10^3/μL; Phosphorus [5, 8]: 6.8 mg/dL; Potassium [5, 8]: 4.4 mmol/L; Sodium [5, 8]: 151 mmol/L; Thrombocytes [5, 8]: 900 ± 10^3/μL; Total bilirubin [5, 8]: 0.1 mg/dL; Total protein [5, 8]: 5.2 g/dL; lung water content ([5]; 7-day treated mice): normal lung water content; major serum chemistry and blood parameters ([5]; 7-day treated mice): did not affect the major serum chemistry and blood parameters; body weight and airway/lung fluid accumulation ([5]; 7-day treated mice, 10 mg/kg oral): nor did it change body weight or produce airway/lung fluid accumulation; intestinal fluid accumulation compared to equal doses of lubiprostone or linaclotide ([6]; 100 μg per loop): Significantly greater intestinal fluid accumulation; loop fluid secretion in cystic fibrosis mice ([6]; cystic fibrosis mice): without effect; solubility [7]: ~20 µM (≈ 7.45 µg/mL)
